Measurements published in US20200138921A1, “METHODS OF PREVENTING AND TREATING DISEASES CHARACTERIZED BY SYNAPTIC DYSFUNCTION AND NEURODEGENERATION INCLUDING ALZHEIMER'S DISEASE” (The Trustees of Columbia University in the City of New York, priority 2017, published 2020).

Tests used:
c-Abl = assay: Western blot of phosphorylated c-Abl; format: cell-based, rat; conditions: oAβ treated vs vehicle (FIG. 4)
Description: FIG. 4A is a quantification of Western blots of phosphorylated c-Abl in vehicle treated (control) and DPH treated hippocampal neurons. FIG. 4B is a quantification of Western blots of phosphorylated Ube3A in vehicle treated (control) and DPH treated hippocampal neurons. […] FIG. 4D is a quantification from Western blots of phosphorylated Ube3A in vehicle treated (control), oAβ treated, and oAβ with STI treated hippocampal neurons. Graphs represent mean values and standard deviation. Significance determined by unpaired student's t-test in FIGS. 4A and 4B, and one-way ANOVA followed by Tukey Post Hoc multiple comparisons in FIGS. 4C and 4D.
It was hypothesized that oAβ could affect the ligase function of Ube3A. One important regulatory mechanism of Ube3A is through c-Abl-mediated phosphorylation tyrosine residue 636 (Y636), which impairs its E3 ligase activity (Chan et al. 2013). […] Since phospho-Ube3A antibodies are not available it was decided to test the hypothesis in B35 neuroblastoma cell line overexpressing HA-tagged Ube3A for immunoprecipitation.

Ube3A = Ube3A levels in astrocyte-enriched cultures; format: cell-based, rat; conditions: astrocyte-enriched cultures treated with oAβ (results not shown)
Protocol: Since Ube3A is also expressed in astrocytes (Grier et al. 2015), it was determined whether Ube3A levels were also altered in these cells.

Ube3A mRNA = assay: qPCR of Ube3A mRNA in hippocampal neurons; format: cell-based, rat; conditions: oAβ for 24 hours (results not shown)
Protocol: Neurons were lysed and total RNA was extracted using TRIzol reagent (Ambion) following the manufacturer's protocol. RNA concentration and purity were assessed by measuring the optical density at 260 and 280 nm with a NanoDrop (Thermo Scientific). cDNA was synthesized using the first-strand cDNA synthesis kit (Origene) with 1 μg of total RNA, following the manufacturer's instructions. Quantitative real-time PCR was performed using FastStart SYBR Green Master Mix (Roche) and an Eppendorf Realplex Mastercyler with the following cycle settings: 1 cycle at 95° C. for 10 min and 40 cycles of amplification, 95° C. for 15 s, 58-60° C. for 30-60 s, 72° C. for 30-60 s. The amounts of Ube3A mRNA were quantified and normalized to GAPDH mRNA using the following primer pairs: Ube3A forward 5′-[…]-3′ (SEQ ID NO: 3) and reverse 5′-[…]—3′ (SEQ ID NO: 4). The threshold cycles were determined and normalized to the threshold cycles of a GAPDH gene. Relative mRNAs levels for Ube3A were expressed as a fold induction in an experimental condition compared with a control condition.
In mammals, the Ube3A gene is subject to genomic imprinting, whereby only the maternal allele is expressed in neurons. The paternal allele is silenced through the expression of a Ube3A-antisense (Ube3A-ATS), transcribed as part of a large non-coding antisense transcript (Runte et al. 2001).

GluR1 = assay: Surface GluR1 in hippocampal neurons (biotinylated surface Western blot, immunostaining); format: cell-based, rat; conditions: hippocampal neurons treated with Aβ
Protocol: Cells were fixed in PFA (4%) in […] PBS for 10 minutes at room temperature. Permeabilization was performed using 0.4% Triton X-100 (Sigma) in PBS for 20 minutes. Then, cells were incubated in anti-GluR1 primary antibody (Millipore) in Superblock (Thermo Scientific) with 0.1% Triton X-100 for 12 hours at 4° C. Cells were washed with PBS, and then incubated in goat anti-mouse Alexa 568 in Superblock with 0.1% Triton X-100 for 1 hour at RT. Then cells were mounted onto glass slides using Gel Mount (Biomeda).
The consequences of upregulation of Arc and Ephexin-5 are well characterized. In the case of Arc, one its key function is to regulate postsynaptic trafficking of AMPA receptor subunits, and to regulate spine morphology and network stability (Korb and Finkbeiner 2011).

amyloid plaques = assay: Amyloid plaque histology (6E10) in J20 mice; format: in vivo; conditions: TOP treated J20 mice at 12.5 months of age vs J20 mice treated with PBS
Description: Immunolabeling was done on 30 μm brain sections from the J20 TOP treated mice and PBS treated wild-type and J20 mice. Staining was done using the anti-Aβ antibody 6E10 (Covance) and GFAP (Cell Signaling). Plaque load and astrocytosis were quantified using ImageJ. Total plaque area was expressed as a percentage of the total hippocampal area.

Row | Compound | c-Abl phosphorylation (c-Abl) | Ube3A levels (Ube3A) | levels of Ube3A mRNA (Ube3A mRNA) | levels of surface-expressed GluR1 subunit (GluR1) | accumulation of amyloid plaques (amyloid plaques)
1 | oAβ: synthetic soluble oligomeric Aβ1-42 | induces | modest, but significant increase | did not show any differences | significant decrease | –
2 | CC[C@@]1(O)C(=O)OCc2c1cc1n(c2=O)Cc2cc3c(CN(C)C)c(O)ccc3nc2-1 [TOP, topotecan] | – | – | – | – | approximately equal accumulation
